Reference: patent publication US20120329721A1, “MEANS FOR PREVENTING AND TREATING CELLULAR DEATH AND THEIR BIOLOGICAL APPLICATIONS” (CHIESI FARMACEUTICI S.P.A., priority 2003, published 2012)
Entries after “also recorded” stand apart in the source; their conditions may differ. Where two headings read alike, the source gives them in different places. Residues, ends and D or L forms follow the SMILES beside them. *: point of attachment. Cbz = O=C(OCc1ccccc1)*; CH2F = FC*

Key:
caspase-2 [1] = test: Caspase-2 activation (FLICA) in VP16-treated Jurkat cells; assay type: cell-based, human; settings: VP16 10 μM, 7 hrs; inhibitors 50 μM
[2] = target: T1, human recombinant caspase-2 (Homo sapiens, UniProt P42575); test: In vitro VDVAD-AMC cleavage by recombinant caspase-2; assay type: biochemical; settings: inhibitor 2 μM, 50 μM VDVAD-AMC, caspase-2 125 U, 30 min at 37° C.
T1 construct: purchased BIOMOL
T1 sequence (P42575 170-325 limits assumed): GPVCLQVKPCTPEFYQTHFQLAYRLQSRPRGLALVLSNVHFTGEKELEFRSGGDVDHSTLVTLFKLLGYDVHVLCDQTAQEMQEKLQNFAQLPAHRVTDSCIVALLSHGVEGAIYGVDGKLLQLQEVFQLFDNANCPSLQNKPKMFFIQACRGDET
T1 sequence (P42575 348-452 limits assumed): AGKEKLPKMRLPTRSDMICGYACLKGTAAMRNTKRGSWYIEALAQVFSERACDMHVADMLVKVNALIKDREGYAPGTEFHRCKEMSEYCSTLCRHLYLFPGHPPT
Protocol: Activity of human recombinant caspase-2 (BIOMOL QuantiZyme™ Assay System) was assessed in 100 μl assay buffer (50 mM HEPES, pH 7.4, 100 mM NaCl, 0.1% CHAPS, 10 mM DTT, 1 mM EDTA, 10% glycerol).

caspase-3 [3] = test: In cellula caspase-3 like activity (FAM-DEVD-FMK FLICA or anti-cleaved caspase-3 antibody) in SD-neurons; assay type: cell-based, mouse; settings: 24 hr-SD; inhibitors 100 μM (BA 25 μM)
caspase-9 = test: In cellula caspase-9 like activity (FAM-LEHD-FMK FLICA) in SD-neurons; assay type: cell-based, mouse; settings: 24 hr-SD; inhibitors 100 μM (BA 25 μM)
Protocol: Neurons were incubated with 1/150 of the DMSO stock solution of the FLICA for 1 hr at 37° C. 7-AAD and Hoechst were added during the last 15 min. Then neurons were washed three times in washing buffer (CaspaTag™ Kit). […] Cleaved caspase-3 was evidenced in cellula by immunodetection using Phycoerythrin (PE)-conjugated polyclonal antibodies (Beckton Dickinson). Neurons were stained by 7-AAD, trypsinized and fixed in PBS containing 1% PFA and 20 μg/ml Actinomycin D (AD) for 20 min. […] After washings in PBS, PE-related fluorescence was analysed on the cytometer (Fl-2 channel). Z-val-Ala-Asp(OMe)-FMK (Z-VAD-FMK), Quinoline-Val-Asp (OMe)-CH2-O-Ph (Q-VD-OPH), Z-DEVD-FMK ([…], ICN) and Z-LEHD-FMK ([…], all purchased from ICN (Orsay, France), and 4-(2-Aminoethyl)benzenesulfonyl fluoride (AEBSF, Pefabloc SC, Roche, Meylan, France) were added at 100 μM at the initiation of serum deprivation. Sulforhodamine-DEVD-FMK, (CaspaTag™ Red Activity Kit) permitted to detect activated caspase-3 and FITC-Annexin V. Neurons were incubated with 1/900 of the DMSO stock solution of the FLICA, and 1× FITC-annexin V in 200 μl of annexin-buffer for 30 min at 37° C. Then neurons were washed three times in a buffer composed of 50% washing buffer and 50% annexin-buffer. […] For FM, FLICA was excited through the BP515-560 filter and its fluorescence was collected through the LP590 long pass emission filter.
Neurons were loaded with 1 μM JC-1 for 30 min at 37° C. […] JC-1 monomers were detected in the Fl-1 channel by FC. […] Activated caspase-2, -3, -8 and -9 were detected using specific FAM-conjugated peptides (called Fluorochrome Labeled Inhibitor of Caspase, FLICA: CaspaTag™ fluorescein Caspase Activity Kits, Q-Biogen, Illkirch, France; ApoFluor™ Caspase Detection Kits, ICN, Orsay, France): FAM-VDVAD-FMK, FAM-DEVD-FMK, FAM-LETD-FMK and FAM-LEHD-FMK, respectively. Neurons were incubated with FLICAs (1:150, CaspaTag™ or 1:500, ApoFluor™) for 1 hr at 37° C., then washed three times in washing buffer. […] Phosphatidylserine (PS) exposure to the outer leaflet of the plasma membrane was detected through the fixation of FITC conjugated-annexin V (Immunotech).

caspase-8 = test: In cellula caspase-8 like activity (FAM-LETD-FMK FLICA) in SD-neurons; assay type: cell-based, mouse; settings: 24 hr-SD; inhibitors 100 μM
caspase-3 [4] = test: Caspase-3 activation (FLICA) in VP16-treated Jurkat cells; assay type: cell-based, human; settings: VP16 10 μM, 7 hrs; inhibitors 50 μM
primary cortical neurons [5] = assay type: cell-based; settings: for survival / protection of SD-neurons against cell death (apoptosis hallmarks overall): 24 hr-SD, inhibitors 100 μM (BA 25 μM, furosemide 2 mM, siRNA 3.8 μg)
Jurkat cells [6] = test: VP16-induced cell death of Jurkat cells, cytoprotection assay; assay type: cell-based, human; settings: for terminal nuclear alterations and PMP in VP16-treated Jurkat cells / ΔΨm loss in VP16-treated Jurkat cells: VP16 10 μM, 7-8 hrs, inhibitors 50 μM
cytochrome c = test: Immunodetection of cytochrome c release in SD-neurons; assay type: cell-based, mouse; settings: 24 hr-SD, inhibitors 100 μM
Bax α = test: Bax cleavage (p22 to p18) in SD-neurons by Western blotting; assay type: cell-based, mouse; settings: 24 hr-SD, Western Blotting Δ21 antibody; VDVAD/QVDOPH 100 μM, ALLN/ALLM 25 μM, E64d 25-50 μM, lactacystin 1-10 μM, epoxomycin 10 μM
Protocol: Neurons were lysed at RT in 25 mM Tris-HCl pH 7.4, 25 mM NaCl, 5 mM EDTA, 1% Triton X-100 supplemented by complete protease inhibitors cocktail (Roche). Protein concentration was determined using the Bio-Rad protein assay kit. Proteins (30 μg for caspase-2; 10 μg for Bax) were separated on 12.5% polyacrylamide gels and transferred to PVDF membranes (Amersham). […] The monoclonal anti-mouse caspase-2antibody (11B4, Alexis Biochemicals) was used at a 1:1000 dilution; polyclonal antibody (Δ21, Santa Cruz Biotechnology) raised against mouse Bax α deleted for the carboxy terminal 21 amino acids was used at a 1:200 dilution; polyclonal antibody (N20, Santa Cruz Biotechnology) raised against the amino terminus of Bax α (recognizing residues 11 to 30) was used at a 1:1000 dilution. Actin (42 kDa; Sigma; 1:5000) is used as an equal loading control. Immunoblotting of heat-shock protein 60 (HSP60) with a mouse monoclonal anti-HSP (Sigma; 1:400) was used to check the purity of the heavy membrane fraction enriched in mitochondria.

Bax = Bax translocation to mitochondria in SD-neurons (Δ21 antibody immunostaining, subcellular fractionation); assay type: cell-based, mouse; settings: 24 hr-SD, inhibitors 100 μM (furosemide 2 mM)
primary cortical neurons [7] = test: Cortical neuron death induced by other stimuli (ionomycin, staurosporine, β-amyloid 25-35, MPTP, 3-NPA, SNP); assay type: cell-based, mouse; settings: for protection against ionomycin-induced neuronal cell death: ionomycin 6 μM, 24 hrs
caspase-2 [8] = test: In cellula caspase-2 like activity (FAM-VDVAD-FMK FLICA; Western blotting) in SD-neurons; assay type: cell-based, mouse
Jurkat cells [9] = settings: model of Robertson et al., 2002; cited from earlier work

With `COC(=O)CCC(NC(=O)C(CC(C)C)NC(=O)OCc1ccccc1)C(=O)NC(C(=O)NC(CC(=O)OC)C(=O)CF)C(C)O` (centres unmarked) [Z-LETD-FMK, N-benzyloxycarbonyl-Leu-Glu(Ome)-Thr-Asp(OMe)-fluoromethylketone] (Cbz-LE(OMe)TD(OMe)-CH2F; configuration not given here) the “caspase-2 activation in VP16-treated Jurkat cells” value (caspase-2 [1]) was “do not impair caspase-2 activation; also recorded: unable to prevent”, the “inhibition of VDVAD-AMC cleavage by recombinant caspase-2” value [2] was “did not interfere highly; also recorded: not strongly inactivated” and the “caspase-3 like activity / activation in SD-neurons” value (caspase-3 [3]) was “failed also to block”. The “caspase-9 like activity / activation in SD-neurons” value (caspase-9) was “failed also to block”, the “caspase-8 like activity in SD-neurons” value (caspase-8) was “abolishing” and the “caspase-3 activation in VP16-treated Jurkat cells” value (caspase-3 [4]) was “unable to prevent”. The “survival / protection of SD-neurons against cell death (apoptosis hallmarks overall)” value (“survival / protection of SD-neurons” for short) (primary cortical neurons [5]) was “failed to protect neurons from SD”, the “terminal nuclear alterations and PMP in VP16-treated Jurkat cells” value (Jurkat cells [6]) was “unable to prevent” and the “ΔΨm loss in VP16-treated Jurkat cells” value (Jurkat cells [6]) was “not abolished; also recorded: unable to prevent”.

For `COC(=O)CC(NC(=O)C(C)NC(=O)C(NC(=O)C(CC(=O)OC)NC(=O)C(NC(=O)OCc1ccccc1)C(C)C)C(C)C)C(=O)CF` (stereo not drawn) [Z-VDVAD-FMK, N-benzyloxy-carbonyl-Val-Asp(Ome)-Val-Ala-Asp(OMe)-fluoromethylketone] (Cbz-VD(OMe)VAD(OMe)-CH2F; configuration not given here), the “inhibition of VDVAD-AMC cleavage by recombinant caspase-2” value [2] was “blocked”, the “cytochrome c release from mitochondria in SD-neurons” value (cytochrome c) was “efficiently blocked” and the “cytochrome c release from mitochondria in SD-neurons” value (cytochrome c; listed as VDVAD) was “reduce post-mitochondrial cytochrome c release”. The “Bax cleavage (p18 Bax) in SD-neurons” value (Bax α) was “prevent Bax cleavage”, the “Bax translocation (relocation) to mitochondria in SD-neurons” value (Bax) was “impair Bax translocation to mitochondria; also recorded: impair both Bax translocation and caspase-2 activity” and the “Bax translocation (relocation) to mitochondria in SD-neurons” value (Bax; listed as VDVAD) was “prevented; also recorded: blocks; also recorded: prevents integration of p18 Bax into mitochondrial membrane”. For the same compound, the “caspase-3 like activity / activation in SD-neurons” value (caspase-3 [3]) was “inhibited; also recorded: prevent downstream cytochrome c release-dependent activation”, the “cell death induced by staurosporine or ionomycin” value (primary cortical neurons [7]; cortical neurons) was “is not prevented” and the “protection against ionomycin-induced neuronal cell death” value (primary cortical neurons [7]) was “provides no protective effect; also recorded: absence of protective effect”. The “protection against ionomycin-induced neuronal cell death” value (primary cortical neurons [7]; listed as VDVAD) was “absence of protection”, the “caspase-9 like activity / activation in SD-neurons” value (caspase-9) was “inhibited; also recorded: prevent downstream cytochrome c release-dependent activation” and the “caspase-2 like activity / activation in SD-neurons” value (caspase-2 [8]) was “abolished; also recorded: abolish caspase-2 activation; also recorded: impair both Bax translocation and caspase-2 activity; also recorded: blocks”. For the same compound, the “decrease of procaspase-2 protein content (processing into p14 form) in SD-neurons” value (caspase-2 [8]; 24 hr-SD, 100 μM, Western Blotting 11B4) was “prevents it”, the “survival / protection of SD-neurons” value (primary cortical neurons [5]) was “abolish loss of ΔΨm loss as well as others hallmarks of apoptosis” and the “survival / protection of SD-neurons” value (primary cortical neurons [5]; listed as VDVAD) was “abolishes these hallmarks of apoptosis”. For the same compound, the “concentration required for optimal survival / higher protective effect” value (primary cortical neurons [5]; dose-response, inhibitor added at the initiation of 24 hr-SD) was 100 µM, the “cell death induced by VP16 (survival)” value (Jurkat cells [6]; Jurkat cells, VP16 7-8 hrs, inhibitors 25-100 μM pre-treatment, siRNA 24 hrs before) was “protective effect; also recorded: prevents cell death” and the “terminal nuclear alterations and PMP in VP16-treated Jurkat cells” value (Jurkat cells [6]) was “mostly prevent”. For the same compound, the “ΔΨm loss in VP16-treated Jurkat cells” value (Jurkat cells [6]) was “blocked ΔΨm loss” and the “cytochrome c release and phosphatidylserine residues exposure in Jurkat T cells” value (Jurkat cells [9]) was “decreased partially”.
